pIC50: −log10 of the molar value. Like-named read-outs stand apart in the source and are kept apart here.
Assays:
PL^Pro = PL^Pro (Severe acute respiratory syndrome coronavirus 2, UniProt P0DTD1); assay: SARS-CoV-2 PLpro screening (Ac-LRGG-ACC substrate); format: biochemical; conditions: read-out: PL^Pro (%inh)@10μM
recombinant M^Pro = recombinant M^Pro (Severe acute respiratory syndrome coronavirus 2, UniProt P0DTD1); assay: SARS-CoV-2 Mpro screening and IC50 determination (QS1 fluorogenic substrate, Drag assay); format: biochemical; conditions: for inhibition at 10 µM: read-out: M^Pro (%inh)@10μM; for pIC50: read-out: M^Pro IC50; for IC50: Table 5, read-out: IC50 (μM) M^Pro
in vitro = conditions: African monkey
[1] = recombinant M^Pro, 20 μM QS1 (Ac-Abu-Tle-Leu-Gln-ACC) substrate, Table 1
[2] = recombinant M^Pro, 20 μM QS1 substrate, Table 3
[3] = recombinant M^Pro, 20 μM QS1 substrate

Compound | inhibition at 10 µM (PL^Pro) [%] | inhibition at 10 µM (recombinant M^Pro) [%] | pIC50 (recombinant M^Pro; [1]) | further results
COc1ccc(-c2ccc(C(=O)N[C@@H](CC3CCCCC3)C(=O)N[C@H](C#N)C[C@@H]3CCNC3=O)cc2)cc1OC [12m] | < 50 | < 95 | 5.68 | 
COc1ccccc1-c1ccc(C(=O)N[C@@H](CC(C)C)C(=O)N[C@H](C#N)C[C@@H]2CCNC2=O)cc1 [6g] | < 50 | > 95 | 5.96 | pIC50 (recombinant M^Pro): < 6.00
COc1cccc(-c2ccc(C(=O)N[C@@H](CC(C)C)C(=O)N[C@H](C#N)C[C@@H]3CCNC3=O)c(C)c2)c1 [18j] |  |  |  | pIC50 (recombinant M^Pro; [2]): 6.79
CCC[C@H](NC(=O)c1ccc(-c2cccc(OC)c2)cc1)C(=O)N[C@H](C#N)C[C@@H]1CCNC1=O [12e] | < 50 | > 95 | 5.31 | 
CC(C)C[C@@H](NC(=O)c1ccc(Br)cc1)C(=O)N[C@H](C#N)C[C@@H]1CCNC1=O [11b] | < 50 | < 95 |  | 
CC(C)C[C@@H](NC(=O)c1ccc(-c2ccc(F)nc2)cc1)C(=O)N[C@H](C#N)C[C@@H]1CCNC1=O [12c] | < 50 | > 95 | 5.23 | 
COc1ccc(-c2cc(F)c(C(=O)N[C@@H](CC(C)C)C(=O)N[C@H](C#N)C[C@@H]3CCNC3=O)cc2F)cc1 [18g] |  |  |  | pIC50 (recombinant M^Pro; [2]): 6.64
CC(C)C[C@H](NC(=O)c1ccc(-c2ccc(Cl)cc2)cc1)C(=O)N[C@H](C#N)C[C@@H]1CCNC1=O [6a] | < 50 | > 95 | 6.14 | activity / biochemical potency against M^Pro (in words) (recombinant M^Pro): submicromolar
N#C[C@H](C[C@@H]1CCNC1=O)NC(=O)C1(NC(=O)c2ccc(Br)cc2)CCCCC1 [11e] | < 50 | > 95 |  | 
CCC[C@H](NC(=O)c1ccc(-c2cncc(Cl)c2)cc1)C(=O)N[C@H](C#N)C[C@@H]1CCNC1=O [12h] | < 50 | > 95 | 5.05 | 
Cn1cc2c(-c3ccc(C(=O)N[C@@H](CC4CCCCC4)C(=O)N[C@H](C#N)C[C@@H]4CCNC4=O)cc3)cccc2n1 [12n] | < 50 | < 95 | 5.89 | 
COc1cccc(-c2ccc(C(=O)N3C[C@@H]4CCC[C@@H]4[C@H]3C(=O)N[C@H](C#N)C[C@@H]3CCNC3=O)cc2)c1 [22g] |  |  |  | IC50 (recombinant M^Pro; [3]): 2.67 µM
CCC[C@H](NC(=O)c1ccc(-c2cccc(OCC)c2)cc1)C(=O)N[C@H](C#N)C[C@@H]1CCNC1=O [12i] | < 50 | > 95 | 5.31 | 
CCOc1ccc(-c2ccc(C(=O)N[C@@H](CC(C)C)C(=O)N[C@H](C#N)C[C@@H]3CCNC3=O)cc2)cc1 [6c] | < 50 | > 95 | 6.12 | 
COc1cccc(-c2ccc(C(=O)N3C[C@@H]4CCC[C@@H]4[C@H]3C(=O)N[C@H](C#N)C[C@@H]3CCNC3=O)c(F)c2)c1 [22i] |  |  |  | IC50 (recombinant M^Pro; [3]): 1.91 µM
CCC[C@H](NC(=O)c1ccc(-c2ccccc2OC)cc1)C(=O)N[C@H](C#N)C[C@@H]1CCNC1=O [12d] | < 50 | < 95 |  | 
COc1ccc(-c2ccc(C(=O)N[C@@H](CC(C)C)C(=O)N[C@H](C#N)C[C@@H]3CCNC3=O)cc2)cn1 [6k] | < 50 | > 95 | 5.92 | pIC50 (recombinant M^Pro): < 6.00
CCC[C@H](NC(=O)c1ccc(-c2ccc(OC)c(OC)c2)cc1)C(=O)N[C@H](C#N)C[C@@H]1CCNC1=O [12g] | < 50 | > 95 | 5.02 | 
COc1cccc(-c2ccc(C(=O)N3C[C@H]4[C@@H]([C@H]3C(=O)N[C@H](C#N)C[C@@H]3CCNC3=O)C4(C)C)c(F)c2)c1 [22c] |  |  |  | IC50 (recombinant M^Pro; [3]): 0.465 µM
COc1cccc(-c2ccc(C(=O)N[C@@H](CC(C)C)C(=O)N[C@H](C#N)C[C@@H]3CCNC3=O)c(F)c2F)c1 [18d] |  |  |  | pIC50 (recombinant M^Pro; [2]): 6.77
COc1cccc(-c2ccc(C(=O)N[C@@H](CC(C)C)C(=O)N[C@H](C#N)C[C@@H]3CCNC3=O)c(C(F)(F)F)c2)c1 [18l] |  |  |  | pIC50 (recombinant M^Pro; [2]): 6.94
COc1cccc(-c2ccc(C(=O)N[C@@H](CC(C)C)C(=O)N[C@H](C#N)C[C@@H]3CCNC3=O)cc2F)c1 [18h] |  |  |  | pIC50 (recombinant M^Pro; [2]): 6.16
CC(C)(C)[C@H](NC(=O)C(F)(F)F)C(=O)N1C[C@H]2[C@@H]([C@H]1C(=O)N[C@H](C#N)C[C@@H]1CCNC1=O)C2(C)C [nirmatrelvir, reference compound] |  |  |  | CC50 (in vitro): > 100 µM

Compound | inhibition at 10 µM (PL^Pro) [%] | inhibition at 10 µM (recombinant M^Pro) [%] | pIC50 (recombinant M^Pro; [1]) | further results
N#CC(CC1CCNC1=O)NC(=O)C(CC1CCCCC1)NC(=O)c1ccc(Br)cc1 (stereo not drawn) [11d] | < 50 | < 95 |  | 
COc1ccc(-c2ccc(C(=O)N[C@@H](CC(C)C)C(=O)N[C@H](C#N)C[C@@H]3CCNC3=O)c(F)c2F)cc1 [18e] |  |  |  | pIC50 (recombinant M^Pro; [2]): 6.81
CC(C)C[C@H](NC(=O)c1ccc(-c2ccc(F)cc2)cc1)C(=O)N[C@H](C#N)C[C@@H]1CCNC1=O [6b] | < 50 | > 95 | 6.07 | activity / biochemical potency against M^Pro (in words) (recombinant M^Pro): submicromolar
CC(C)C[C@@H](NC(=O)c1ccc(-c2ccc(F)cc2)cc1)C(=O)N[C@H](C#N)C[C@@H]1CCNC1=O [12b] | < 50 | > 95 | 5.39 | 
N#C[C@H](C[C@@H]1CCNC1=O)NC(=O)[C@H](CC1CCCCC1)NC(=O)c1ccc(-c2cncc(Cl)c2)cc1 [12o] | < 50 | < 95 | 5.62 | 
CC(C)C[C@@H](NC(=O)c1ccc(-c2ccc(Cl)cc2)cc1)C(=O)N[C@H](C#N)C[C@@H]1CCNC1=O [12a] | < 50 | > 95 | 5.49 | 
CC(C)C[C@H](NC(=O)c1ccc(-c2ccc3cnn(C)c3c2)cc1)C(=O)N[C@H](C#N)C[C@@H]1CCNC1=O [6n] | < 50 | > 95 | 6.19 | 
COc1cccc(-c2cc(F)c(C(=O)N[C@@H](CC(C)C)C(=O)N[C@H](C#N)C[C@@H]3CCNC3=O)cc2F)c1 [18f] |  |  |  | pIC50 (recombinant M^Pro; [2]): 6.61
COc1ccc(-c2ccc(C(=O)N3C[C@@H]4CCC[C@@H]4[C@H]3C(=O)N[C@H](C#N)C[C@@H]3CCNC3=O)cc2)cc1 [22h] |  |  |  | IC50 (recombinant M^Pro; [3]): 2.99 µM
COc1cccc(-c2ccc(C(=O)N3C[C@H]4[C@@H]([C@H]3C(=O)N[C@H](C#N)C[C@@H]3CCNC3=O)C4(C)C)cc2)c1 [22a] |  |  |  | IC50 (recombinant M^Pro; [3]): 1.02 µM
COc1ccc(-c2ccc(C(=O)N3C[C@H]4[C@@H]([C@H]3C(=O)N[C@H](C#N)C[C@@H]3CCNC3=O)C4(C)C)c(F)c2)cc1 [22d] |  |  |  | IC50 (recombinant M^Pro; [3]): 0.394 µM
CCOc1cccc(-c2ccc(C(=O)N[C@@H](CC(C)C)C(=O)N[C@H](C#N)C[C@@H]3CCNC3=O)cc2)c1 [6i] | < 50 | > 95 | 6.10 | 
CCOc1ccc(-c2ccc(C(=O)N[C@@H](CC(C)C)C(=O)N[C@H](C#N)C[C@@H]3CCNC3=O)cc2)cc1F [6m] | < 50 | > 95 | 6.14 | 
COc1ccc(-c2ccc(C(=O)N[C@@H](CC(C)C)C(=O)N[C@H](C#N)C[C@@H]3CCNC3=O)cc2)cc1 [6d] | < 50 | > 95 | 6.13 | 
COc1ccc(-c2ccc(C(=O)N[C@@H](CC(C)C)C(=O)N[C@H](C#N)C[C@@H]3CCNC3=O)cc2F)cc1 [18i] |  |  |  | pIC50 (recombinant M^Pro; [2]): 6.18
CCCC(NC(=O)c1ccc(Br)cc1)C(=O)NC(C#N)CC1CCNC1=O (stereo not drawn) [11c] | < 50 | < 95 |  | 
CC(C)C[C@H](NC(=O)c1ccc(-c2cncc(Cl)c2)cc1)C(=O)N[C@H](C#N)C[C@@H]1CCNC1=O [6h] | < 50 | > 95 | 5.89 | pIC50 (recombinant M^Pro): < 6.00
CCC[C@H](NC(=O)c1ccc(-c2ccc(OC)nc2)cc1)C(=O)N[C@H](C#N)C[C@@H]1CCNC1=O [12j] | < 50 | < 95 |  | 
COc1ccc(-c2ccc(C(=O)N3C[C@H]4[C@@H]([C@H]3C(=O)N[C@H](C#N)C[C@@H]3CCNC3=O)C4(C)C)cc2)cc1 [22b] |  |  |  | IC50 (recombinant M^Pro; [3]): 1.13 µM
COc1ccc(-c2ccc(C(=O)N3C[C@@H]4CCC[C@@H]4[C@H]3C(=O)N[C@H](C#N)C[C@@H]3CCNC3=O)c(F)c2)cc1 [22j] |  |  |  | IC50 (recombinant M^Pro; [3]): 1.27 µM
COc1ccc(-c2ccc(C(=O)NC3(C(=O)N[C@H](C#N)C[C@@H]4CCNC4=O)CCCCC3)cc2)cc1 [12p] | < 50 | > 95 |  | 
CCC[C@H](NC(=O)c1ccc(-c2ccc(OC)cc2)cc1)C(=O)N[C@H](C#N)C[C@@H]1CCNC1=O [12f] | < 50 | > 95 | 5.26 | 
